Data on 36 compounds can be found in patent US10011615B2, “Heterobicyclo-substituted [1,2,4]triazolo[1,5-c]quinazolin-5-amine compounds with A2A anatagonist properties” (Merck Sharp & Dohme Corp., priority 2012, dated 2018).

pEC50: −log10 of the molar value.

In the assay the target is T1, human A2a receptor (Homo sapiens, UniProt P29274).
T1 construct: purchased Perkin-Elmer RBHA2AM400UA; host or cells: HEK293 cell membranes
T1 sequence (P29274 whole entry): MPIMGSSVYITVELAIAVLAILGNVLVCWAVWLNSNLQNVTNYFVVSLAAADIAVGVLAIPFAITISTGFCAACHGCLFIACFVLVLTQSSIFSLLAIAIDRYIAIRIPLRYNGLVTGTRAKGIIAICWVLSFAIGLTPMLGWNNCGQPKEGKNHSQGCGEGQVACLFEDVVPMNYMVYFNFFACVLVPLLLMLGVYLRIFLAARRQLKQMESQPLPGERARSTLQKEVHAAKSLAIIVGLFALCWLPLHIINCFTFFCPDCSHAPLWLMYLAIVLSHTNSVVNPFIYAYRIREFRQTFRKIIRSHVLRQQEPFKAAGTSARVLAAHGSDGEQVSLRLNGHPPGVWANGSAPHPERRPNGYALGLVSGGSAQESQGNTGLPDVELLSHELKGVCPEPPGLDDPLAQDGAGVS
Description: A2a receptor competition binding assay using Scintillation Proximity technology. The note with it: membranes from HEK293 cells expressing human A2a receptor; 0.5 nM tritiated radioligand; SPA beads; 1 h room temperature. In short, it runs like this:
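Membranes of HEK293 cells expressing human A2a, pretreated with adenosine deaminase, incubated 1 h at room temperature with 0.5 nM tritiated pyrazolotriazolopyrimidine antagonist (final) and compound (3000 to 0.15 nM) on WGA SPA beads in Ca/Mg-free PBS with 10 mM MgCl2. Ki from EC50 via Cheng-Prusoff.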
A general note: SPA uses beads or plates that emit light when radiolabelled molecules are held near them.
Regarding `COc1cccc2c1nc(N)n1nc(CN3Cc4ccc(Cl)nc4C3)nc21` [Ex-137], the negative-log EC50 (pEC50) was 7.79.

The compound `COc1cccc2c1nc(N)n1nc(CN3CCn4c(nnc4SC)C3)nc21` [Ex-138] had a pEC50 of 6.84.

As for `CCOC(=O)c1nnc2n1CCN(Cc1nc3c4cccc(OC)c4nc(N)n3n1)C2` [Ex-139, ethyl 7-((5-amino-7-methoxy-[1,2,4]triazolo[1,5-c]quinazolin-2-yl)methyl)-5,6,7,8-tetrahydro-[1,2,4]triazolo[4,3-a]pyrazine-3-carboxylate], the pEC50 is 6.96.

Compound `COc1cccc2c1nc(N)n1nc(CN3CCn4c(Br)nnc4C3)nc21` [Ex-140, 2-((3-bromo-5,6-dihydro-[1,2,4]triazolo[4,3-a]pyrazin-7(8H)-yl)methyl)-7-methoxy-[1,2,4]triazolo[1,5-c]quinazolin-5-amine] showed a pEC50 of 6.98.

In turn, `COc1cccc2c1nc(N)n1nc(CN3CCn4cnnc4C3)nc21` [Ex-141, 2-((5-dihydro-[1,2,4]triazolo[4,3-a]pyrazin-7(8H)-yl)methyl)-7-methoxy-[1,2,4]triazolo[1,5-c]quinazolin-5-amine] gave a negative-log EC50 (pEC50) of 6.83. This pEC50 and that of the compound before are within 0.2 log units of each other.

In the case of `CCc1nnc2n1CCN(Cc1nc3c4cccc(OC)c4nc(N)n3n1)C2` [Ex-142, 2-((3-ethyl-5,6-dihydro-[1,2,4]triazolo[4,3-a]pyrazin-7(8H)-yl)methyl)-7-methoxy-[1,2,4]triazolo[1,5-c]quinazolin-5-amine], the negative logarithm of the EC50 (pEC50) is 6.46.

`COc1cccc2c1nc(N)n1nc(CN3CCn4c(nnc4C(=O)NC(C)(C)C)C3)nc21` [Ex-143, 7-((5-amino-7-methoxy-[1,2,4]triazolo[1,5-c]quinazolin-2-yl)methyl)-N-tert-butyl-5,6,7,8-tetrahydro-[1,2,4]triazolo[4,3-a]pyrazine-3-carboxamide] showed a negative logarithm of the EC50 (pEC50) of 7.13.

`COc1cccc2c1nc(N)n1nc(CN3CCn4c(nnc4OC)C3)nc21` [Ex-144, 7-methoxy-2-((3-methoxy-5,6-dihydro[1,2,4]triazolo[4,3-a]pyrazin-7(8H)-yl)methyl)[1,2,4]triazolo[1,5-c]quinazolin-5-amine] showed a pEC50 of 6.83.

For `COc1cccc2c1nc(N)n1nc(CN3Cc4nnc(C(F)(F)F)n4C(C)(C)C3)nc21` [Ex-145, 2-((5,5-dimethyl-3-(trifluoromethyl)-5,6-dihydro-[1,2,4]triazolo[4,3-a]pyrazin-7(8H)-yl)methyl)-7-methoxy-[1,2,4]triazolo[1,5-c]quinazolin-5-amine], the negative-log EC50 (pEC50) is 7.32.

As for `COc1cccc2c1nc(N)n1nc(CN3CCn4c(C(F)(F)F)nnc4C3(C)C)nc21` [Ex-146, 2-((8,8-dimethyl-3-(trifluoromethyl)-5,6-dihydro-[1,2,4]triazolo[4,3-a]pyrazin-7(8H)-yl)methyl)-7-methoxy-[1,2,4]triazolo[1,5-c]quinazolin-5-amine], the pEC50 is 7.52.

`COc1cccc2c1nc(N)n1nc(CN3CCc4c(Br)ccnc4C3)nc21` [Ex-148] gave a pEC50 of 8.14.

In the case of `COc1cccc2c1nc(N)n1nc(CN3Cc4nc(C(C)C)sc4C3)nc21` [Ex-149, 2-((2-isopropyl-4H-pyrrolo[3,4-d]thiazol-5(6H)-yl)methyl)-7-methoxy-[1,2,4]triazolo[1,5-c]quinazolin-5-amine], the pEC50 was 7.76.

The compound `COc1cccc2c1nc(N)n1nc(CN3CCc4nccnc4C3)nc21` [Ex-150, 2-((7,8-dihydropyrido[4,3-b]pyrazin-6(5H)-yl)methyl)-7-methoxy-[1,2,4]triazolo[1,5-c]quinazolin-5-amine] gave a pEC50 of 7.56.

`COc1cccc2c1nc(N)n1nc(CN3CCc4cncnc4C3)nc21` [Ex-151, 2-((5,6-dihydropyrido[3,4-d]pyrimidin-7(8H)-yl)methyl)-7-methoxy-[1,2,4]triazolo[1,5-c]quinazolin-5-amine]: the pEC50 is 7.32.

`COc1cccc2c1nc(N)n1nc(CN3Cc4cnc(C(F)(F)F)nc4C3)nc21` [Ex-152, 7-methoxy-2-((2-(trifluoromethyl)-5H-pyrrolo[3,4-d]pyrimidin-6(7H)-yl)methyl)-[1,2,4]triazolo[1,5-c]quinazolin-5-amine] showed a pEC50 of 7.56.

The compound `COc1cccc2c1nc(N)n1nc(CN3CCn4c(nnc4C(F)(F)F)C3)nc21` [Ex-153, 7-methoxy-2-((3-(trifluoromethyl)-5,6-dihydro[1,2,4]triazolo[4,3-a]pyrazin-7(8H)-yl)methyl)-[1,2,4]triazolo[1,5-c]quinazolin-5-amine] showed a pEC50 of 6.55.

Take `COc1cccc2c1nc(N)n1nc(CN3CCc4cc(Br)cnc43)nc21` [Ex-155, 2-((5-bromo-2,3-dihydro-1H-pyrrolo[2,3-b]pyridin-1-yl)methyl)-7-methoxy-[1,2,4]triazolo[1,5-c]quinazolin-5-amine]: the pEC50 is 8.66.

With `COc1cccc2c1nc(N)n1nc(CN3CCCc4ccc(C)nc43)nc21` [Ex-156], the pEC50 is 8.22.

As to `COc1cccc2c1nc(N)n1nc(CN3CCCCc4cccnc43)nc21` [Ex-157, 2-((7,8-dihydro-5H-pyrido[2,3-b]azepin-9(6H)-yl)methyl)-7-methoxy-[1,2,4]triazolo[1,5-c]quinazolin-5-amine], the pEC50 was 8.80. This pEC50 is 0.58 log units higher than that of the compound before.

In turn, `COc1cccc2c1nc(N)n1nc(CN3CCCCc4ccc(Cl)nc43)nc21` [Ex-160, 2-((2-chloro-7,8-dihydro-5H-pyrido[2,3-b]azepin-9(6H)-yl)methyl)-7-methoxy-[1,2,4]triazolo[1,5-c]quinazolin-5-amine] had a negative-log EC50 (pEC50) of 8.82.

`COc1cccc2c1nc(N)n1nc(CN3CCCc4cccnc43)nc21` [Ex-161, 2-((3,4-dihydro-1,8-naphthyridin-1(2H)-yl)methyl)-7-methoxy-[1,2,4]triazolo[1,5-c]quinazolin-5-amine] had a pEC50 of 8.68.

Compound `COc1cccc2c1nc(N)n1nc(CN3CCCCc4ccc(-c5ccccn5)nc43)nc21` [Ex-162, 7-methoxy-2-((2-(pyridin-2-yl)-7,8-dihydro-5H-pyrido[2,3-b]azepin-9(6H)-yl)methyl)-[1,2,4]triazolo[1,5-c]quinazolin-5-amine] gave a pEC50 of 8.57.

As to `COc1cccc2c1nc(N)n1nc(CN3Cc4ccccc4C(C)(C)C3)nc21` [Ex-163, 2-((4,4-dimethyl-3,4-dihydroisoquinolin-2(1H)-yl)methyl)-7-methoxy-[1,2,4]triazolo[1,5-c]quinazolin-5-amine], the negative logarithm of the EC50 (pEC50) was 8.57.

The compound `COc1cc(F)cc2c1nc(N)n1nc(CN3Cc4cccnc4C3)nc21` [Ex-164, 2-((5H-pyrrolo[3,4-b]pyridin-6(7H)-yl)methyl)-9-fluoro-7-methoxy-[1,2,4]triazolo[1,5-c]quinazolin-5-amine] gave a negative logarithm of the EC50 (pEC50) of 8.07.

Consider `COc1cccc2c1nc(N)n1nc(CN3CCc4ccc(-c5cncnc5)cc4C3)nc21` [Ex-165, 7-methoxy-2-((7-(pyrimidin-5-yl)-3,4-dihydroisoquinolin-2(1H)-yl)methyl)-[1,2,4]triazolo[1,5-c]quinazolin-5-amine], for which the negative logarithm of the EC50 (pEC50) was 8.36.

As to `COc1cccc2c1nc(N)n1nc(CN3CCc4ccc(NC(=O)c5ccccn5)cc4C3)nc21` [Ex-166, N-(2-((5-amino-7-methoxy-[1,2,4]triazolo[1,5-c]quinazolin-2-yl)methyl)-1,2,3,4-tetrahydroisoquinolin-7-yl)picolinamide], the pEC50 is 8.35. The pEC50 values of the last two compounds are within 0.2 log units of each other.

Regarding `COc1cccc2c1nc(N)n1nc(CN3CCc4ccc(NC(C)=O)cc4C3)nc21` [Ex-167], the pEC50 is 8.12. This pEC50 is 0.23 log units lower than that of the compound before.

Compound `COc1cccc2c1nc(N)n1nc(CN3CCc4ccc(-c5ccc(F)c(F)c5)cc4C3)nc21` [Ex-168] had a pEC50 of 8.37.

`COc1cccc2c1nc(N)n1nc(CCN3CCc4ccc(-c5cncnc5)cc4C3)nc21` [Ex-172, 7-methoxy-2-(2-(7-(pyrimidin-5-yl)-3,4-dihydroisoquinolin-2(1H)-yl)ethyl)-[1,2,4]triazolo[1,5-c]quinazolin-5-amine] showed a negative logarithm of the EC50 (pEC50) of 8.21.

In turn, `COc1cccc2c1nc(N)n1nc(CN3CCc4ccc(CC(=O)Nc5cccnc5)cc4C3)nc21` [Ex-173, 2-(2-((5-amino-7-methoxy-[1,2,4]triazolo[1,5-c]quinazolin-2-yl)methyl)-1,2,3,4-tetrahydroisoquinolin-7-yl)-N-(pyridine-3-yt)acetamide] gave a pEC50 of 8.04. This pEC50 and that of the compound before are within 0.2 log units of each other.

Compound `COc1cccc2c1nc(N)n1nc(CN3Cc4ccc(-c5cncnc5)cc4C3)nc21` [Ex-175] had a pEC50 of 8.34.

`COc1cccc2c1nc(N)n1nc(CN3CCc4cccc(-c5cncnc5)c4C3)nc21` [Ex-177, 7-methoxy-2-((8-(pyrimidin-5-yl)-3,4-dihydroisoquinolin-2(1H)-yl)methyl)-[1,2,4]triazolo[l,5-c]quinazolin-5-amine] had a negative-log EC50 (pEC50) of 7.77.

In turn, `COc1cccc2c1nc(N)n1nc(CN3CCc4ccc(-c5cnc(C(F)(F)F)nc5)cc4C3)nc21` [Ex-179, 7-methoxy-2-((7-(2-(trifluoromethyl)pydmidin-5-yl)-3,4-dihydroisoquinolin-2(1H)-yl)methyl)-[1,2,4]triazolo[1,5-c]quinazolin-5-amine] showed a pEC50 of 8.21.

`COc1cccc2c1nc(N)n1nc(CN3CCc4ccc(-c5cnn(C)c5)cc4C3)nc21` [Ex-180] had a pEC50 of 8.05.

Consider `COc1cccc2c1nc(N)n1nc(CN3CCc4ccc(-c5cnn(C)c5C(F)(F)F)cc4C3)nc21` [Ex-182, 7-methoxy-2-((7-(1-methyl-5-(trifluoromethyl)-1H-pyrazol-4-yl)-3,4-dihydroisoquinolin-2(1H)-yl)methyl)-[1,2,4]triazolo[1,5-c]quinazolin-5-amine], for which the negative logarithm of the EC50 (pEC50) is 8.55.

Turning to `COc1cccc2c1nc(N)n1nc(CN3CCc4ccc(-c5cn(C)nc5C(F)(F)F)cc4C3)nc21` [Ex-184, 7-methoxy-2-((7-(1-methyl-3-(trifluoromethyl)-1H-pyrazol-4-yl)-3,4-dihydroisoquinolin-2(1H)-yl)methyl)-[1,2,4]triazolo[1,5-c]quinazolin-5-amine], the negative logarithm of the EC50 (pEC50) was 8.54. This pEC50 and that of the compound before are within 0.2 log units of each other.

In general, pEC50 refers to the EC50 on a negative log10 scale, so that one unit is a factor of ten. Lower therefore signals a high EC50.
